The values that follow come from patent US20230293644A1, “ANTI-INFLAMMATORY PEPTIDES AND COMPOSITION COMPRISING THE SAME” (Gemvax & KAEL Co., Ltd., priority 2012, published 2023).

For experiment [1], the system named is TNF-α. Description: Screening of TNF-α level in PMA-differentiated THP-1 cell line after LPS. It counts as cell-based, human. To be noted: 1 µM peptide, one hour; LPS 10 ng/ml. The procedure:
Experiment was carried out using THP-1 cell line (American Type Culture Collection (ATCC), Manassas, VA, USA) which is human acute monocytic leukemia.
THP-1 cells were incubated to reach the number of 1 × 10^5 cells per well in a 96-well plate with RPMI 1640 medium for 24 hrs, followed by addition of 100 uM of PMA (phorbol 12-myristate 13-acetate) for the differentiation into macrophage. After differentiation of THP-1 into macrophage by PMA for a day, LPS was treated for 2 hrs and washed off. Starvation for an hour and PEP1 treatment followed.
THP-1 cell differentiated by PMA was treated with LPS (lipopolysaccharide; 10 ng/ml, Sigma) for 2 hours, followed by 2 times washes with PBS. To the cells, OPTI-MEM culture medium was added to induce cell starvation for an hour, and 1 µM of 179 peptides was taken out and incubated for an hour. After incubation, TNF-α level was measured by using the ELISA kit and the peptides which reduce the TNF-α level were screened (FIG. 24 to FIG. 46).

Experiment [2] relates to TNF-α. Description: Screening of TNF-α inhibitory effect, LPS-stimulated PBMC-derived monocytes (Example 2). To be noted: 4 uM peptide, 2 hrs, LPS 10 ng/ml; for TNF-α inhibiting effect compared to the group treated with LPS and estrogen: estrogen 20 nM. It counts as cell-based, human. How it is done: PBMC (peripheral blood mononuclear cells) layer was separated from blood samples (50 ml) collected in healthy subjects using Biocoll Separating Solution (Biochrom AG, Berlin, Germany). The collected PBMC were enriched in RPMI 1640 medium containing 20% human serum for 30 mins, and then transferred to 100-mm polystyeren cell culture plate coated with human serum for incubation for 2 hrs at 37° C., 5% CO^2 incubator. Monocytes were detached from the bottom of the plate using cold PBS, and incubated to reach the number of 1 × 10^5 cell/well in 96-well plate with RPMI 1640 medium (supplemented with penicillinstreptomycin; […], human serum; 20%) over night.
ELISA was performed to find out how the peptides of the PEP RIA series influence TNF-α level. PBMC-derived monocytes were incubated to reach the number of 1 × 10^5 cells per well in a 96-well plate and then treated with LPS (lipopolysaccharide; 10 ng/ml, Sigma) for 2 hours. To the monocytes that were washed three times with PBS, OPTI-MEM culture medium was added to induce cell starvation for an hour, 4 µM of the peptide was taken out and incubated for 2 hours. There were three negative control groups. The first group was not treated with anything. The second group that was treated with estrogen (in this experiment, estradiol was used as a kind of estrogen). The third group was treated with LPS (10 ng/ml) or with LPS (10 ng/ml) as well as estrogen (20 nM). PEP1 that was confirmed to have TNF-α inhibiting activity was used as a positive control to measure TNF-α inhibiting activity. After incubation, TNF-α was measured by following the ELISA kit manual (R&D, Minneapolis, MN, USA). The details of quantification method can be found in Experiment 2.2 of Example 1.
Using the method stated above, Peptides with TNF-α inhibiting effect were screened. PBMC-derived monocytes were stimulated with LPS (10 ng/ml), which is endotoxin, for 2 hours and were induced to starve by adding OPTI-MEM for 1 hour. After that, 4 uM of 179 peptides were treated and incubated for 2 hrs. The amount of TNF-α in the cell culture medium was measured using ELISA, and the peptides with TNF-α inhibiting effect were screened by comparing to the negative and positive controls (FIG. 3 to FIG. 23).

For the substance “ALLTSRLR (listed as Homo sapiens) [SEQ ID NO: 107]”, the “TNF-α level compared to control group treated only with LPS” value with TNF-α [1] is given as “reduce the TNF- α level”.

For the substance “ARPALLTSRL (listed as Homo sapiens) [SEQ ID NO: 113]”, the “TNF-α inhibiting effect compared to the control group treated with only LPS” value in the experiment with TNF-α [2] is “showed TNF-α inhibiting effect”. The “expression level of TNF-α compared to group treated with LPS and estrogen” value with TNF-α [1] was “reduce the expression level of TNF-α”.

Consider “ARPALLTSRLR (listed as Homo sapiens) [SEQ ID NO: 112]”, for which the “TNF-α inhibiting effect compared to the control group treated with only LPS” value in the experiment with TNF-α [2] is listed as “showed TNF-α inhibiting effect”. Also, the “expression level of TNF-α compared to group treated with LPS and estrogen” value in the experiment on TNF-α [1] is given as “reduce the expression level of TNF-α”.

Take “EARPALLTSRLRFIP (listed as Homo sapiens) [SEQ ID NO: 78]”: the “TNF-α level compared to control group treated only with LPS” value in the experiment with TNF-α [1] was “reduce the TNF- α level”.

On to “EARPALLTSRLRFIPKPDGLRPIVNM (listed as Homo sapiens) [SEQ ID NO: 73]”, for which, in the experiment on TNF-α [2], the “TNF-α inhibiting effect compared to the control group treated with only LPS” value is on record as “showed TNF-α inhibiting effect”; the “TNF-α inhibiting effect compared to the group treated with LPS and estrogen” value is reported as “showed TNF-α inhibiting effect”. Also, the “TNF-α level compared to control group treated only with LPS” value with TNF-α [1] was “reduce the TNF- α level”.

With “EARPALLTSRLRFIPKPDGLRPIVNMDY (listed as Homo sapiens) [SEQ ID NO: 75]”, the “TNF-α level compared to control group treated only with LPS” value with TNF-α [1] was “reduce the TNF- α level”.

With “EVRQHREARPALLTSRLRFIPK (listed as Homo sapiens) [SEQ ID NO: 7]”, the “TNF-α level compared to control group treated only with LPS” value in the experiment on TNF-α [1] is given as “reduce the TNF- α level”.

“EVRQHREARPALLTSRLRFIPKP (listed as Homo sapiens) [SEQ ID NO: 41]”: in the experiment on TNF-α [1], the “expression level of TNF-α compared to group treated with LPS and estrogen” value is given as “reduce the expression level of TNF-α”.

FIP [SEQ ID NO: 179]: in the experiment with TNF-α [1], the “TNF-α level compared to control group treated only with LPS” value is reported as “reduce the TNF- α level”.

For “HREARPALLTSRLRFIPK (listed as Homo sapiens) [SEQ ID NO: 3]”, the “expression level of TNF-α compared to group treated with LPS and estrogen” value with TNF-α [1] is recorded as “reduce the expression level of TNF-α”.

Turning to “HREARPALLTSRLRFIPKPDGL (listed as Homo sapiens) [SEQ ID NO: 30]”, in the experiment with TNF-α [1], the “expression level of TNF-α compared to group treated with LPS and estrogen” value is given as “reduce the expression level of TNF-α”.

On to “LTSR (listed as Homo sapiens) [SEQ ID NO: 109]”, for which, in the experiment with TNF-α [2], the “TNF-α inhibiting effect compared to the control group treated with only LPS” value is listed as “showed TNF-α inhibiting effect”; the “TNF-α inhibiting effect compared to the group treated with LPS and estrogen” value is given as “showed TNF-α inhibiting effect”. Further, the “TNF-α level compared to control group treated only with LPS” value with TNF-α [1] is “reduce the TNF- α level”.

On to “QHREARPALLTSRLRFIPKPDGLR (listed as Homo sapiens) [SEQ ID NO: 38]”, for which the “TNF-α inhibiting effect compared to the control group treated with only LPS” value in the experiment with TNF-α [2] is given as “showed TNF-α inhibiting effect”. Besides, in the experiment on TNF-α [1], the “TNF-α level compared to control group treated only with LPS” value is on record as “reduce the TNF- α level”.

With “REARPALLTSRLRFIPK (listed as Homo sapiens) [SEQ ID NO: 2]”, the “expression level of TNF-α compared to group treated with LPS and estrogen” value with TNF-α [1] was “reduce the expression level of TNF-α”.

Take “RQHREARPALLTSRLRFIPK (listed as Homo sapiens) [SEQ ID NO: 5]”: in the experiment on TNF-α [1], the “TNF-α level compared to control group treated only with LPS” value is “reduce the TNF- α level”.

With “SEAEVRQHREARPALLTSRLRFIPK (listed as Homo sapiens) [SEQ ID NO: 10]”, in the experiment with TNF-α [2], the “TNF-α inhibiting effect compared to the control group treated with only LPS” value is “showed TNF-α inhibiting effect”; the “TNF-α inhibiting effect compared to the group treated with LPS and estrogen” value is recorded as “showed TNF-α inhibiting effect”.

Take “SRLR (listed as Homo sapiens) [SEQ ID NO: 168]”: in the experiment with TNF-α [2], the “TNF-α inhibiting effect compared to the control group treated with only LPS” value was “showed TNF-α inhibiting effect”.

Regarding “SRLRF (listed as Homo sapiens) [SEQ ID NO: 167]”, in the experiment with TNF-α [2], the “TNF-α inhibiting effect compared to the control group treated with only LPS” value is given as “showed TNF-α inhibiting effect”; the “TNF-α inhibiting effect compared to the group treated with LPS and estrogen” value was “showed TNF-α inhibiting effect”.

For “SRLRFI (listed as Homo sapiens) [SEQ ID NO: 166]”, in the experiment with TNF-α [2], the “TNF-α inhibiting effect compared to the control group treated with only LPS” value is recorded as “showed TNF-α inhibiting effect”; the “TNF-α inhibiting effect compared to the group treated with LPS and estrogen” value was “showed TNF-α inhibiting effect”.

For “SRLRFIP (listed as Homo sapiens) [SEQ ID NO: 165]”, in the experiment on TNF-α [2], the “TNF-α inhibiting effect compared to the control group treated with only LPS” value was “showed TNF-α inhibiting effect”; the “TNF-α inhibiting effect compared to the group treated with LPS and estrogen” value is reported as “showed TNF-α inhibiting effect”.

On to “SRLRFIPK (listed as Homo sapiens) [SEQ ID NO: 98]”, for which, in the experiment on TNF-α [2], the “TNF-α inhibiting effect compared to the control group treated with only LPS” value is given as “showed TNF-α inhibiting effect”; the “TNF-α inhibiting effect compared to the group treated with LPS and estrogen” value is given as “showed TNF-α inhibiting effect”.

As to TSR [SEQ ID NO: 164], in the experiment on TNF-α [2], the “TNF-α inhibiting effect compared to the control group treated with only LPS” value was “showed TNF-α inhibiting effect”; the “TNF-α inhibiting effect compared to the group treated with LPS and estrogen” value is recorded as “showed TNF-α inhibiting effect”.

Turning to “TSRLRFIP (listed as Homo sapiens) [SEQ ID NO: 159]”, the “TNF-α inhibiting effect compared to the control group treated with only LPS” value in the experiment on TNF-α [2] is on record as “showed TNF-α inhibiting effect”.

With “TSRLRFIPK (listed as Homo sapiens) [SEQ ID NO: 97]”, in the experiment with TNF-α [2], the “TNF-α inhibiting effect compared to the control group treated with only LPS” value was “showed TNF-α inhibiting effect”; the “TNF-α inhibiting effect compared to the group treated with LPS and estrogen” value was “showed TNF-α inhibiting effect”.

As to “VRQHREARPALLTSRLRFIPKPD (listed as Homo sapiens) [SEQ ID NO: 33]”, in the experiment on TNF-α [2], the “TNF-α inhibiting effect compared to the control group treated with only LPS” value was “showed TNF-α inhibiting effect”; the “TNF-α inhibiting effect compared to the group treated with LPS and estrogen” value is “showed TNF-α inhibiting effect”.

For the substance “VRQHREARPALLTSRLRFIPKPDG (listed as Homo sapiens) [SEQ ID NO: 34]”, in the experiment with TNF-α [2], the “TNF-α inhibiting effect compared to the control group treated with only LPS” value is reported as “showed TNF-α inhibiting effect”; the “TNF-α inhibiting effect compared to the group treated with LPS and estrogen” value is “showed TNF-α inhibiting effect”.

Regarding “VRQHREARPALLTSRLRFIPKPDGL (listed as Homo sapiens) [SEQ ID NO: 35]”, the “TNF-α inhibiting effect compared to the control group treated with only LPS” value in the experiment on TNF-α [2] is “showed TNF-α inhibiting effect”.

As for “VRQHREARPALLTSRLRFIPKPDGLR (listed as Homo sapiens) [SEQ ID NO: 36]”, the “TNF-α inhibiting effect compared to the control group treated with only LPS” value in the experiment on TNF-α [2] is “showed TNF-α inhibiting effect”. The “TNF-α level compared to control group treated only with LPS” value in the experiment with TNF-α [1] is listed as “reduce the TNF- α level”.
